Patent EP4635500A1, “THERAPEUTIC AGENT FOR BACTERIAL INFECTION” (Sumitomo Pharma Co., Ltd., priority 2022, dated 2024)
Values after ≈ are worked out from the molar mass of the structure shown. Read-outs that look alike come from different tables or passages of the source.

Experiments:
[1] = system: carbapenemase-producing Enterobacteriaceae (CPE); experiment: MIC in human urine and CAMHB at pH 5.0 to 8.0 (Example 13, Tables 29, 30); conditions: Klebsiella pneumoniae
[2] = system: Klebsiella pneumoniae; experiment: MIC and MBC, broth microdilution (Example 4, Table 3); type: cell-based; conditions: Klebsiella pneumoniae; for MIC: read-out: MIC
[3] = system: Escherichia coli; experiment: as above; type: cell-based; conditions: for MBC: read-out: MBC; for MIC: read-out: MIC
[4] = system: Acinetobacter baumannii; experiment: Systemic infection lethal mouse model, ED50 (Example 15, Table 34); conditions: for ED50: Acinetobacter baumannii, in Mus musculus; for Survival rate: 7 days after infection
Protocol: The test strains on the agar medium were suspended in saline and adjusted to a Klett unit of about 200 using a Klett Photoelectric Colorimeter. […] Male ICR mice were inoculated intraperitoneally with 0.2 mL of the bacterial suspension. Two hours after the inoculation, saline or a solution for administering the agent of each concentration was administered subcutaneously to the mice in a single dose. The number of mice that survived from Day 1 to Day 7 after infection was recorded.

[5] = system: K. pneumoniae ATCCBAA-2344 producing KPC-2; experiment: Systemic infection lethal mouse model, ED50 (Example 14, Table 31); conditions: 7 days after infection
Protocol: The test strains on the agar medium were suspended in saline and adjusted to a Klett unit of about 200 using a Klett Photoelectric Colorimeter. […] Male ICR mice were inoculated intraperitoneally with 0.2 mL of the bacterial suspension. Two hours after the inoculation, saline or a solution for administering the agent at each concentration was administered subcutaneously to the mice in a single dose. The number of mice that survived from Day 1 to Day 7 after infection was recorded.

[6] = ATCCBAA2344, Klebsiella pneumoniae ATCC BAA-2344 (KPC-2)
[7] = ATCCBAA2470, Klebsiella pneumoniae ATCC BAA-2470 (NDM-1)
[8] = ATCCBAA2524, Klebsiella pneumoniae ATCC BAA-2524 (OXA-48)
[9] = Klebsiella pneumoniae CDC-112 (KPC-3)
[10] = Klebsiella pneumoniae CDC-505 (NDM-1)
[11] = Klebsiella pneumoniae KUB3607 (IMP-1)
[12] = NCTC13440, Klebsiella pneumoniae NCTC13440 (VIM-1)
[13] = ATCCBAA2340, Escherichia coli ATCC BAA-2340 (KPC-3)
[14] = ATCCBAA2469, Escherichia coli ATCC BAA-2469 (NDM-1)
[15] = Escherichia coli NCTC13476 (IMP-1)

## C[C@@H](O)[C@H]1C(=O)N2C(C(=O)O)=C(S[C@@H]3CN[C@H](C(=O)N(C)C)C3)[C@H](C)[C@H]12 [MEPM, meropenem]
[1]; ATCCBAA2470, pH 8, read-out: MICs of MEPM, K. pneumoniae ATCC BAA-2470 (NDM-1), CAMHB pH8.0
  MIC: 64 µg/mL (≈ 167 µM)
[1]; ATCCBAA2470, pH 8, read-out: MICs of MEPM, K. pneumoniae ATCC BAA-2470 (NDM-1), Human urine pH8.0
  MIC: 8 µg/mL (≈ 20.9 µM)
[1]; ATCCBAA2524, pH 5, read-out: MICs of MEPM, K. pneumoniae ATCC BAA-2524 (OXA-48), CAMHB pH5.0
  MIC: 0.25 µg/mL (≈ 0.652 µM)
[1]; ATCCBAA2524, pH 5, read-out: MICs of MEPM, K. pneumoniae ATCC BAA-2524 (OXA-48), Human urine pH5.0
  MIC: 0.25 µg/mL (≈ 0.652 µM)
[1]; ATCCBAA2524, pH 6, read-out: MICs of MEPM, K. pneumoniae ATCC BAA-2524 (OXA-48), CAMHB pH6.0
  MIC: 0.25 µg/mL (≈ 0.652 µM)
[1]; ATCCBAA2524, pH 6, read-out: MICs of MEPM, K. pneumoniae ATCC BAA-2524 (OXA-48), Human urine pH6.0
  MIC: 0.25 µg/mL (≈ 0.652 µM)
[1]; ATCCBAA2524, pH 7, read-out: MICs of MEPM, K. pneumoniae ATCC BAA-2524 (OXA-48), Human urine pH7.0
  MIC: 0.25 µg/mL (≈ 0.652 µM)
[1]; ATCCBAA2524, pH 7.2, read-out: MICs of MEPM, K. pneumoniae ATCC BAA-2524 (OXA-48), Standard condition (CAMHB pH7.2)
  MIC: 1 µg/mL (≈ 2.61 µM)
[1]; ATCCBAA2524, pH 8, read-out: MICs of MEPM, K. pneumoniae ATCC BAA-2524 (OXA-48), CAMHB pH8.0
  MIC: 4 µg/mL (≈ 10.4 µM)
[1]; ATCCBAA2524, pH 8, read-out: MICs of MEPM, K. pneumoniae ATCC BAA-2524 (OXA-48), Human urine pH8.0
  MIC: 1 µg/mL (≈ 2.61 µM)
[1]; NCTC13439, pH 5, read-out: MICs of MEPM, K. pneumoniae NCTC13439 (VIM-1), CAMHB pH5.0
  MIC: 0.12 µg/mL (≈ 0.313 µM)
[1]; NCTC13439, pH 5, read-out: MICs of MEPM, K. pneumoniae NCTC13439 (VIM-1), Human urine pH5.0
  MIC: 0.12 µg/mL (≈ 0.313 µM)
[1]; NCTC13439, pH 6, read-out: MICs of MEPM, K. pneumoniae NCTC13439 (VIM-1), CAMHB pH6.0
  MIC: 1 µg/mL (≈ 2.61 µM)
[1]; NCTC13439, pH 6, read-out: MICs of MEPM, K. pneumoniae NCTC13439 (VIM-1), Human urine pH6.0
  MIC: 0.06 µg/mL (≈ 0.156 µM)
[1]; NCTC13439, pH 7, read-out: MICs of MEPM, K. pneumoniae NCTC13439 (VIM-1), Human urine pH7.0
  MIC: 2 µg/mL (≈ 5.22 µM)
[1]; NCTC13439, pH 7.2, read-out: MICs of MEPM, K. pneumoniae NCTC13439 (VIM-1), Standard condition (CAMHB pH7.2)
  MIC: 4 µg/mL (≈ 10.4 µM)
[1]; NCTC13439, pH 8, read-out: MICs of MEPM, K. pneumoniae NCTC13439 (VIM-1), CAMHB pH8.0
  MIC: 4 µg/mL (≈ 10.4 µM)
[1]; NCTC13439, pH 8, read-out: MICs of MEPM, K. pneumoniae NCTC13439 (VIM-1), Human urine pH8.0
  MIC: 1 µg/mL (≈ 2.61 µM)
[2]; [6]
  MBC: 32 µg/mL (≈ 83.4 µM)
  MIC: 16 µg/mL (≈ 41.7 µM)
[2]; [7]
  MBC: 32 µg/mL (≈ 83.4 µM)
  MIC: 32 µg/mL (≈ 83.4 µM)
[2]; [8]
  MBC: 4 µg/mL (≈ 10.4 µM)
  MIC: 1 µg/mL (≈ 2.61 µM)
[2]; [9]
  MBC: 32 µg/mL (≈ 83.4 µM)
  MIC: 32 µg/mL (≈ 83.4 µM)
[2]; [10]
  MBC: 64 µg/mL (≈ 167 µM)
  MIC: 64 µg/mL (≈ 167 µM)
[2]; [11]
  MBC: 8 µg/mL (≈ 20.9 µM)
  MIC: 8 µg/mL (≈ 20.9 µM)
[2]; [12]
  MBC: 64 µg/mL (≈ 167 µM)
  MIC: 16 µg/mL (≈ 41.7 µM)
[3]; [13]
  MBC: 8 µg/mL (≈ 20.9 µM)
  MIC: 4 µg/mL (≈ 10.4 µM)
[3]; [14]
  MBC: 32 µg/mL (≈ 83.4 µM)
  MIC: 32 µg/mL (≈ 83.4 µM)
[3]; [15]
  MBC: 8 µg/mL (≈ 20.9 µM)
  MIC: 4 µg/mL (≈ 10.4 µM)
[4]; Acinetobacter baumannii CDC-303 (OXA-23, OXA-66), single s.c. dose, with cilastatin 100 mg/kg
  ED50 of MEPM: ≥ 300 mg/kg
[4]; read-out: ED50 of MEPM, value estimated by probit analysis, CDC-83 (Serine and metallo), cell prints ND, estimate in brackets, above the highest dose of 300 mg/kg
  ED50: 401 mg/kg
[4]; read-out: ED50 of MEPM, value estimated by probit analysis, CDC-303 (Serine), cell prints ND, estimate in brackets, above the highest dose of 300 mg/kg
  ED50: 6550 mg/kg
[4]; sc, read-out: ED50 of MEPM
  ED50: ≥ 300 mg/kg
[4]; CDC-83 (Serine and metallo), Dose 30 mg/kg
  Survival rate: 0%
[4]; CDC-83 (Serine and metallo), Dose 100 mg/kg
  Survival rate: 10%
[4]; CDC-83 (Serine and metallo), Dose 200 mg/kg
  Survival rate: 20%
[4]; CDC-83 (Serine and metallo), Dose 300 mg/kg
  Survival rate: 40%
[4]; CDC-303 (Serine), Dose 50 mg/kg
  Survival rate: 10%
[4]; CDC-303 (Serine), Dose 100 mg/kg
  Survival rate: 0%
[4]; CDC-303 (Serine), Dose 200 mg/kg
  Survival rate: 10%
[4]; CDC-303 (Serine), Dose 300 mg/kg
  Survival rate: 20%
[5]; Dose 10 mg/kg
  Survival rate: 10%
[5]; Dose 30 mg/kg
  Survival rate: 10%
[5]; Dose 60 mg/kg
  Survival rate: 10%
[5]; Dose 100 mg/kg
  Survival rate: 50%
